Results on 25 molecules are retold here after patent US11458149B1, “TEAD inhibitors and uses thereof” (Ikena Oncology, Inc., priority 2019, dated 2022).

Like-named read-outs stand apart in the source and are kept apart here. Some results are limits rather than exact numbers.

As usually defined, the AUC(0-t) is the area under the concentration-time curve up to a stated or last time point. Low values mean less exposure, high ones more exposure. The Cmax is the highest concentration seen after dosing. For orientation: EC50 means the concentration giving half of the maximal effect.

A short description of series [1]: Mouse pharmacokinetics study. The format is in vivo. The note with it: BALB/c mice, 10 mg/kg oral gavage, 5% DMS/95% PEG400, plasma. The protocol: Formulated compounds were administered intravenously or orally via gavage to BALB/c mice. Typically, at 0.167, 0.5, 1, 2, 4, 6, 12, and 24 hours post-dose, blood was collected and processed to plasma by centrifugation and stored at −80° C. until analysis. Internal standard was added to each sample prior to protein precipitation with acetonitrile or TCA. The precipitates were filtered through a filter plate and the samples were analyzed by LC/MS/MS. A standard curve was prepared in plasma from typically from 1.0 ng/mL to 3000 ng/mL and processed in the same manner as the samples. Sample analysis was typically performed on a suitable LC/MS/MS system fitted with an analytical UPLC column and compounds eluted from the analytical column with a gradient from 30-95% 0.1% formic acid (v/v) in ACN: 0.1% formic acid (v/v) in water. Mass spectrometric detection of test compound and the internal standard was performed by […] in positive mode. The pharmacokinetics of each compound were analyzed by Phoenix WinNonlin software (Pharsight, St. Louis, Mo.) via noncompartmental analysis. FIG. 4 depicts pharmacokinetic (PK) properties of isomer 1 of compound I-186 following dosing in BALB/c mice.

Another series has as its system TEAD. Nature of the series: TEAD reporter assay (Hippo Pathway TEAD Reporter - MCF7 cell line, luciferase). The format is cell-based, human. The note with it: read-out: TEAD Reporter Assay EC50. The text has this: TEAD inhibition can be assayed using Hippo Pathway TEAD Reporter—MCF7 Cell Line (BPS Bioscience, Catalog #: 60618).
The TEAD Reporter—MCF7 cell line contains the firefly luciferase gene under the control of TEAD responsive elements stably integrated into the human breast cancer cell line, MCF7. Inside the cells, basal unphosphorylated YAP/TAZ remains in the nucleus and induces the constitutive expression of luciferase reporter. The cell line is validated for the inhibition of the expression of luciferase reporter by the activators of the Hippo pathway.
• 1) Harvest TEAD Reporter—MCF7 cells from culture in growth medium and seed cells at a density of 35,000 cells per well into white clear-bottom 96-well microplate in 45 μl of assay medium. • 2) Incubate cells at 37° C. in a CO2 incubator for overnight. • 3) Dilute the activators (H2O2 or okadaic acid) stock in assay medium. Add 5 μl of diluted activators to the wells. The final concentration of DMSO in assay medium is 0.1%. • 4) Add 5 μl of assay medium with same concentration of DMSO without activator to control wells. • 5) Add 50 μl of assay medium with DMSO to cell-free control wells (for determining background luminescence). • 6) Set up each treatment in at least triplicate. • 7) Incubate cells at 37° C. in a CO2 incubator for 5-6 hours. • 8) Perform luciferase assay using the ONE-Step™ Luciferase Assay System following the protocol provided: Add 100 μl of ONE-Step™ Luciferase reagent per well and rock at room temperature for ˜15 minutes. Measure luminescence using a luminometer. • 9) Data Analysis: Obtain the background-subtracted luminescence by subtracting the average background luminescence (cell-free control wells) from the luminescence reading of all wells.
(§1) Certain compounds were tested in TEAD reporter assay, and in H226 and H28. A: EC50<0.1 uM; B: 0.1 uM≤EC50≤0.5 uM; C: EC50>0.5 uM.
(A reporter such as luciferase makes a cellular process visible.)

A further series relates to H226. Nature of the series: Anti-proliferation assay in H226 cells. The format is cell-based, human. Particulars: read-out: H226 EC50. The protocol: as §1
(§2) Individual cell lines were grown in medium according to supplier instructions and seeded into 96-well plates at a density that ensured logarithmic growth over 72 hours. TEAD inhibitor compounds were administered to cells at a top concentration of 10 μm and subsequently a 10 point 3-fold serial dilution was conducted. After 72 hours, proliferation was quantified using Cell TITERGLO™ (Promega, Inc.) and compared to vehicle control. IC50 and EC50 values were generated using XLFit curve fitting software.

A further series concerns H28. Nature of the series: Anti-proliferation assay in H28 cells. The format is cell-based. The note with it: Homo sapiens, NCI-H28. The protocol:
as §1, §2
The effect of isomer 2 of compound I-12 on cell proliferation is dependent on the presence of a Hippo/NF2 mutation. No effect is seen by isomer 2 of compound I-12 on the NF2 wild-type H28 cell line.

Where [2] appears, read: Homo sapiens, MCF7, TEAD Reporter - MCF7 cells.
Where [3] appears, read: Homo sapiens, NCI-H226, H226 cells.

In series [1] (mouse), `C=CC(=O)N[C@H]1[C@@H]2CCN(Cc3ccc(C(F)(F)F)cc3)C[C@@H]21` [Compound I-208, N-[(1R,6R,7S)-4-[[4-(trifluoromethyl)phenyl]methyl]-4-azabicyclo[4.1.0]heptan-7-yl]prop-2-enamide] returned an AUC(0-t) of 226 ng·h/mL. For the same molecule, in series [1] (mouse, read-out: Cmax), the Cmax is 318 ng/mL.
Consider `C=CC(=O)Nc1ccc(C)c(Nc2cccc(C(F)(F)F)c2)c1` [Compound I-33, N-[4-Methyl-3-[3-(trifluoromethyl)anilino]phenyl]prop-2-enamide], for which the EC50 in the series with TEAD (setting [2]) is less than 100 nM; in the series with H226 (setting [3]) it was less than 100 nM; with H28 it was greater than 500 nM.
For `C=CC(=O)Nc1ccc(C)c(N(C)c2cccc(C(F)(F)F)c2)c1` [Compound I-35, N-[4-methyl-3-[N-methyl-3-(trifluoromethyl)anilino]phenyl]prop-2-enamide], the EC50 in the series on TEAD (setting [2]) was less than 100 nM; with H226 (setting [3]), less than 100 nM; in the series on H28, greater than 500 nM.
On to `C=CC(=O)NC1[C@H]2CN(Cc3ccc(C(F)(F)F)cc3)C[C@@H]12` (stereo partly drawn) [Compound I-69, N-[(1R,5S)-3-[[4-(Trifluoromethyl)phenyl]methyl]-3-azabicyclo[3.1.0]hexan-6-yl]prop-2-enamide], for which the EC50 with TEAD (setting [2]) and in the series with H226 (setting [3]) was less than 100 nM in each case. The molecule also registered an exposure AUC(0-t) in series [1] (mouse) of 1240 ng·h/mL. Moreover, the Cmax in series [1] (mouse, read-out: Cmax) stood at 1160 ng/mL.
With `C=CC(=O)Nc1ccc(-c2cn(C)cn2)c(Nc2cccc(C(F)(F)F)c2)c1` [Compound I-40, N-[4-(1-methylimidazol-4-yl)-3-[3-(trifluoromethyl)anilino]phenyl]prop-2-enamide], the half-maximal effective concentration (EC50) is less than 100 nM in the series on TEAD (setting [2]), less than 100 nM in the series with H226 (setting [3]) and greater than 500 nM in the series with H28.
Regarding `C=CC(=O)Nc1ccc(Br)c(Nc2cccc(C(F)(F)F)c2)c1` [Compound I-36, N-[4-bromo-3-[3-(trifluoromethyl)anilino]phenyl]prop-2-enamide], the EC50 is less than 100 nM in the series on TEAD (setting [2]), less than 100 nM in the series on H226 (setting [3]) and greater than 500 nM with H28.
On to `C=CC(=O)N1CC[C@@H](NCc2ccc(C(F)(F)F)cc2)C1` [Compound I-211, 1-[(3R)-3-[[4-(trifluoromethyl)phenyl]methylamino]pyrrolidin-1-yl]prop-2-en-1-one], for which the AUC(0-t) in series [1] (mouse) was found to be 1260 ng·h/mL. The Cmax in series [1] (mouse, read-out: Cmax) was found to be 1250 ng/mL.
In series [1] (mouse), `C=CC(=O)NC1CCN(Cc2ccc(C(F)(F)F)cc2)c2ccccc21` (stereo in doubt) [Compound I-203, N-[(4R)-1-[[4-(Trifluoromethyl)phenyl]methyl]-3,4-dihydro-2H-quinolin-4-yl]prop-2-enamide] displayed an AUC(0-t) of 275 ng·h/mL. For the same molecule, the Cmax in series [1] (mouse, read-out: Cmax) is 63.3 ng/mL.
`C=CC(=O)NC1CCN([C@H](C)c2ccc(C(F)(F)F)cc2)CC1` [Compound I-62, N-[1-[(1R)-1-[4-(Trifluoromethyl)phenyl]ethyl]-4-piperidyl]prop-2-enamide]: the EC50 with TEAD (setting [2]) and in the series on H226 (setting [3]) was less than 100 nM each time. Further, in series [1] (mouse), the AUC(0-t) stood at 368 ng·h/mL. In addition, the Cmax in series [1] (mouse, read-out: Cmax) is 345 ng/mL.
In the case of `C=CC(=O)NC1CCN(Cc2ccccc2C(F)(F)F)CC1` [Compound I-49, N-[1-[[2-(trifluoromethyl)phenyl]methyl]-4-piperidyl]prop-2-enamide], the EC50 with TEAD (setting [2]), with H226 (setting [3]) and in the series on H28 was greater than 500 nM throughout.
Take `C=CC(=O)Nc1cccc(C)c1Oc1ccc(Cl)cc1` [Compound I-28, N-[2-(4-Chlorophenoxy)-3-methyl-phenyl]prop-2-enamide]: the concentration for a half-maximal effect (EC50) in the series with TEAD (setting [2]), in the series on H226 (setting [3]) and in the series on H28 was greater than 500 nM throughout.
For the molecule `C=CC(=O)Nc1ccc(C)c(Oc2cncc(C(F)(F)F)c2)c1` [Compound I-30, N-[4-Methyl-3-[[5-(trifluoromethyl)-3-pyridyl]oxy]phenyl]prop-2-enamide], the EC50 in the series with TEAD (setting [2]) was less than 100 nM; with H226 (setting [3]) it was less than 100 nM; in the series on H28, greater than 500 nM.
As for `C=CC(=O)Nc1cc(Oc2cccc(C(F)(F)F)c2)c2ccccc2c1` [Compound I-29, N-[4-[3-(Trifluoromethyl)phenoxy]-2-naphthyl]prop-2-enamide], the EC50 was less than 100 nM in the series with TEAD (setting [2]), 100 to 500 nM with H226 (setting [3]) and greater than 500 nM in the series with H28.
`C=CC(=O)Nc1ccc(C)c(Oc2ccc(Cl)cc2)c1` [Compound P-5]: in series [1], the AUC0-last is 397 ng·h/mL and the Cmax is 246 ng/mL.
Take `C=CC(=O)NC1CCN(Cc2ccc(C3CC3)cc2)CC1` [Compound I-397]: the values for the EC50 in the series with TEAD (setting [2]) and in the series with H226 (setting [3]) were greater than 500 nM and 100 to 500 nM, respectively.
On the same counts, the results for `C=CC(=O)NC1CCN([C@@H](C)c2ccc(C(F)(F)F)cc2)CC1` [Compound I-63, N-[1-[(1S)-1-[4-(Trifluoromethyl)phenyl]ethyl]-4-piperidyl]prop-2-enamide] are 100 to 500 nM and greater than 500 nM.
For `C=CC(=O)Nc1ccc(C)c(Nc2ccc(Cl)cc2)c1` [Compound I-27, N-[3-(4-Chloroanilino)-4-methyl-phenyl]prop-2-enamide], the EC50 was less than 100 nM in the series on TEAD (setting [2]), less than 100 nM with H226 (setting [3]) and greater than 500 nM in the series with H28.
Consider `C=CC(=O)NC1CCN(S(=O)(=O)c2ccc(C(F)(F)F)cc2)CC1` [Compound I-50, N-[1-[4-(trifluoromethyl)phenyl]sulfonyl-4-piperidyl]prop-2-enamide], for which the EC50 with TEAD (setting [2]), with H226 (setting [3]) and in the series with H28 was greater than 500 nM each time.
With `C=CC(=O)N1CCC(NCc2ccc(C(F)(F)F)cc2)CC1` [Compound I-53, 1-[4-[[4-(trifluoromethyl)phenyl]methylamino]-1-piperidyl]prop-2-en-1-one], the EC50 in the series with TEAD (setting [2]) and in the series on H226 (setting [3]) was 100 to 500 nM in each case.
For the molecule `C=CC(=O)NC1CCN(Cc2ccc(SC(F)(F)F)cc2)CC1` [Compound I-387], the EC50 with TEAD (setting [2]) and with H226 (setting [3]) was greater than 500 nM throughout.
For the molecule `C=CC(=O)NC1CCC(Nc2ccc(C(F)(F)F)cc2)CC1` (centres unmarked) [Compound I-58, N-[4-[4-(trifluoromethyl)anilino]cyclohexyl]prop-2-enamide], the EC50 in the series with TEAD (TEAD Reporter - MCF7 cells) and with H226 (H226 cells) was greater than 500 nM throughout.
`C=CC(=O)Nc1cc(Oc2cccc(C(F)(F)F)c2)c(C)cn1` [Compound I-45]: the EC50 in the series with TEAD (setting [2]) and in the series with H226 (setting [3]) was less than 100 nM in each case.
In the case of `C=CC(=O)Nc1ccc(C)c(Oc2cc(C(F)(F)F)ccn2)c1` [Compound I-31, N-[4-methyl-3-[[4-(trifluoromethyl)-2-pyridyl]oxy]phenyl]prop-2-enamide], the EC50 is less than 100 nM with TEAD (setting [2]), less than 100 nM in the series on H226 (setting [3]) and greater than 500 nM in the series with H28.
Take `NC(=O)/C=C/c1cc(Oc2cccc(C(F)(F)F)c2)cc2ncccc12` [Compound I-39, (E)-3-[7-[3-(trifluoromethyl)phenoxy]-5-quinolyl]prop-2-enamide]: the EC50 in the series on TEAD (setting [2]) and in the series with H226 (setting [3]) was greater than 500 nM in each case.
For the molecule `C=CC(=O)NC1CCN(Cc2cccc(C(F)(F)F)c2)CC1` [Compound I-51, N-[1-[[3-(trifluoromethyl)phenyl]methyl]-4-piperidyl]prop-2-enamide], the EC50 in the series with TEAD (setting [2]) and with H226 (setting [3]) was greater than 500 nM each time.
